The source made the active and inactive calls. No cut-off for these calls is given here.
Experiments:
NHDF = assay: Cytotoxicity against NHDF cells assessed as reduction in cell viability measured after 72 hrs by MTS assay; type: cell-based; details: Homo sapiens
K562 = assay: Cytotoxicity against human K562 cells assessed as reduction in cell viability measured after 72 hrs by MTS assay; type: functional, cell-based; details: K562, 72 h
PANC-1 [1] = assay: Cytotoxicity against human PANC-1 cells assessed as reduction in cell viability measured after 72 hrs by MTS assay; type: functional, cell-based; details: PANC-1, 72 h
MCF7 [2] = assay: Cytotoxicity against human MCF7 cells assessed as reduction in cell viability measured after 72 hrs by MTS assay; type: functional, cell-based; details: MCF7, 72 h
U-251 = assay: Cytotoxicity against human U-251 cells assessed as reduction in cell viability measured after 72 hrs by MTS assay; type: functional, cell-based; details: U-251, 72 h
HCT-116 = assay: Cytotoxicity against human HCT-116 cells assessed as reduction in cell viability measured after 72 hrs by MTS assay; type: functional, cell-based; details: HCT-116, 72 h
PANC-1 [3] = assay: Induction of autophagy in human PANC-1 cells assessed as increase in LC3 expression at 25 uM measured after 24 hrs by muse cell analyzer based fluorescence assay relative to control; type: functional
[4] = Dark toxicity in human HeLa cells assessed as reduction in cell viability measured after 4 hrs by resazurin dye based fluorescence assay
[5] = Drug localization in mitochondria of human MCF7 cells at 25 uM measured after 2 hrs by mitotracker orange dye based microscopic analysis; type: ADME; details: mcf7, 2 h
[6] = Drug localization in lysosomes of human MCF7 cells at 25 uM measured after 2 hrs by lysotracker red DND-99 dye based microscopic analysis; type: ADME, subcellular, Lysosome; details: mcf7, 2 h
MCF7 [7] = assay: Up regulation of p53 expression in human MCF7 cells at 5 uM measured after 24 hrs by Western blot analysis; type: functional, cell-based
PANC-1 [8] = assay: Up regulation of p53 expression in human PANC-1 cells at 5 uM measured after 24 hrs by Western blot analysis relative to control; type: functional, cell-based

Question: What does the source list for `N#Cc1ccc(-c2cn(-c3ccc(-c4cc(-c5ccccn5)nc(-c5ccccn5)c4)cc3)nn2)cc1`?
Answer: IC50 (NHDF): 2030 nM; IC50 (K562): 1570 nM; IC50 (PANC-1 [1]): 920 nM; IC50 (MCF7 [2]): 372 nM; IC50 (U-251): 1830 nM; IC50 (HCT-116): 1310 nM

Question: What does the source list for `CCCCCCCCCCCCc1cn(-c2ccc(-c3cc(-c4ccccn4)nc(-c4ccccn4)c3)cc2)nn1`?
Answer: IC50 (NHDF): 9070 nM; IC50 (K562): 19800 nM; IC50 (PANC-1 [1]): > 25000 nM; IC50 (MCF7 [2]): 11200 nM; IC50 (U-251): 20400 nM; IC50 (HCT-116): 13500 nM

Question: Which “fold change (FC)” value (PANC-1 [3]) does the source give for `Cc1ccc(NC(=O)c2ccc(CN3CCN(C)CC3)cc2)cc1Nc1nccc(-c2cccnc2)n1` [IMATINIB] here?
Answer: Its value is 2.

Question: Which IC50 at 4 h [4] does the source give for `COc1cc(-c2cccnc2)nc(-c2ccccn2)c1` here?
Answer: Its IC50 at 4 h is 40900 nM.

Question: With `c1ccc(-c2cccc(-c3cccnc3)n2)nc1` as the molecule, how does the IC50 at 4 h [4] read?
Answer: Its IC50 at 4 h is 35100 nM.

Question: For `CCCCCOc1ccc(-c2cn(-c3ccc(-c4cc(-c5ccccn5)nc(-c5ccccn5)c4)cc3)nn2)cc1`, which IC50 (NHDF) is on record?
Answer: The IC50 was over 25000 nM.

Question: And the IC50 (K562)?
Answer: Its IC50 is 1790 nM.

Question: And the IC50 (PANC-1 [1])?
Answer: The IC50 was 374 nM.

Question: What about the IC50 (MCF7 [2]) of the same molecule?
Answer: Its IC50 is 871 nM.

Question: What about the IC50 (U-251) of the same molecule?
Answer: Its IC50 is 609 nM.

Question: And the IC50 (HCT-116)?
Answer: Its IC50 is 491 nM.

Question: Which IC50 (NHDF) does the source give for `Oc1cn(-c2ccc(-c3cc(-c4ccccn4)nc(-c4ccccn4)c3)cc2)nn1` here?
Answer: Its IC50 is 11800 nM.

Question: What about the IC50 (K562) of the same molecule?
Answer: Its IC50 is 1310 nM.

Question: And the IC50 (PANC-1 [1])?
Answer: The IC50 was 689 nM.

Question: What about the IC50 (MCF7 [2]) of the same molecule?
Answer: Its IC50 is 592 nM.

Question: And the IC50 (U-251)?
Answer: The IC50 was 1400 nM.

Question: What about the IC50 (HCT-116) of the same molecule?
Answer: Its IC50 is 782 nM.

Question: Which IC50 (NHDF) does the source give for `CC1(C)c2ccccc2-c2ccc(-c3cn(-c4ccc(-c5cc(-c6ccccn6)nc(-c6ccccn6)c5)cc4)nn3)cc21` here?
Answer: Its IC50 is over 25000 nM.

Question: What about the IC50 (K562) of the same molecule?
Answer: The IC50 was 625 nM.

Question: And the IC50 (PANC-1 [1])?
Answer: Its IC50 is 1870 nM.

Question: And the IC50 (MCF7 [2])?
Answer: The IC50 was 1070 nM.

Question: What about the Drug uptake [5] of the same molecule?
Answer: Its Drug uptake is “Active”.

Question: And the IC50 (U-251)?
Answer: The IC50 was 1880 nM.

Question: And the Drug uptake [6]?
Answer: Its Drug uptake is “Active”.

Question: What about the IC50 (HCT-116) of the same molecule?
Answer: The IC50 was 1290 nM.

Question: For `Clc1cc(-c2cccnc2)nc(-c2ccccn2)c1`, which IC50 at 4 h [4] is on record?
Answer: Its IC50 at 4 h is 26500 nM.

Question: With `c1ccc(-c2cn(-c3ccc(-c4cc(-c5ccccn5)nc(-c5ccccn5)c4)cc3)nn2)cc1` as the molecule, how does the IC50 (NHDF) read?
Answer: Its IC50 is over 25000 nM.

Question: And the IC50 (K562)?
Answer: Its IC50 is 741 nM.

Question: What about the IC50 (PANC-1 [1]) of the same molecule?
Answer: The IC50 was 287 nM.

Question: And the IC50 (MCF7 [2])?
Answer: The IC50 was 477 nM.

Question: And the IC50 (U-251)?
Answer: Its IC50 is 955 nM.

Question: What about the IC50 (HCT-116) of the same molecule?
Answer: Its IC50 is 249 nM.

Question: With `O=C(O)c1cc(-c2cccnc2)nc(-c2ccccn2)c1` as the molecule, how does the IC50 at 4 h [4] read?
Answer: The IC50 at 4 h was 50500 nM.

Question: With `c1ccc(-c2cc(-c3ccc(-n4cc(-c5ccc(-c6cccs6)s5)nn4)cc3)cc(-c3ccccn3)n2)nc1` as the molecule, how does the IC50 (NHDF) read?
Answer: Its IC50 is over 25000 nM.

Question: What about the IC50 (K562) of the same molecule?
Answer: The IC50 was 1950 nM.

Question: And the IC50 (PANC-1 [1])?
Answer: The IC50 was 2220 nM.

Question: What about the IC50 (MCF7 [2]) of the same molecule?
Answer: Its IC50 is 1790 nM.

Question: What about the IC50 (U-251) of the same molecule?
Answer: The IC50 was 3590 nM.

Question: And the IC50 (HCT-116)?
Answer: Its IC50 is 822 nM.

Question: What does the source list for `CCCCCCCCCCn1cc(-c2ccc(-c3cc(-c4nccs4)nc(-c4nccs4)c3)cc2)nn1`?
Answer: IC50 (K562): > 25000 nM; IC50 (PANC-1 [1]): > 25000 nM; IC50 (MCF7 [2]): > 25000 nM; IC50 (U-251): > 25000 nM; IC50 (HCT-116): > 25000 nM

Question: Which IC50 at 4 h [4] does the source give for `CN(C)c1cc(-c2cccnc2)nc(-c2ccccn2)c1` here?
Answer: Its IC50 at 4 h is 19600 nM.

Question: For `COc1cccc2c1C(=O)c1c(O)c3c(c(O)c1C2=O)C[C@@](O)(C(=O)CO)C[C@@H]3O[C@H]1C[C@H](N)[C@H](O)[C@H](C)O1` [DOXORUBICIN], which IC50 (NHDF) is on record?
Answer: Its IC50 is 137 nM.

Question: What about the IC50 (K562) of the same molecule?
Answer: Its IC50 is 19 nM.

Question: What about the IC50 (MCF7 [2]) of the same molecule?
Answer: Its IC50 is 405 nM.

Question: And the Activity (MCF7 [7])?
Answer: The Activity was “Active”.

Question: What about the IC50 (U-251) of the same molecule?
Answer: Its IC50 is 52 nM.

Question: What about the Activity (PANC-1 [8]) of the same molecule?
Answer: The Activity was “Active”.

Question: Which IC50 (NHDF) does the source give for `CCCCCCCCn1c2ccccc2c2cc(-c3cn(-c4ccc(-c5cc(-c6ccccn6)nc(-c6ccccn6)c5)cc4)nn3)ccc21` here?
Answer: Its IC50 is over 25000 nM.

Question: What about the IC50 (K562) of the same molecule?
Answer: The IC50 was 5500 nM.

Question: What about the IC50 (PANC-1 [1]) of the same molecule?
Answer: The IC50 was 3590 nM.

Question: What about the IC50 (MCF7 [2]) of the same molecule?
Answer: The IC50 was 9960 nM.

Question: What about the IC50 (U-251) of the same molecule?
Answer: The IC50 was 10100 nM.

Question: And the IC50 (HCT-116)?
Answer: Its IC50 is 6260 nM.

Question: For `c1ccc(-c2cc(-c3ccc(-n4cc(-c5ccc6sc7ccccc7c6c5)nn4)cc3)cc(-c3ccccn3)n2)nc1`, which IC50 (NHDF) is on record?
Answer: Its IC50 is over 25000 nM.

Question: And the IC50 (K562)?
Answer: Its IC50 is 7380 nM.

Question: And the IC50 (PANC-1 [1])?
Answer: The IC50 was 784 nM.

Question: And the IC50 (MCF7 [2])?
Answer: The IC50 was 1720 nM.

Question: And the IC50 (U-251)?
Answer: The IC50 was 2390 nM.

Question: And the IC50 (HCT-116)?
Answer: The IC50 was 918 nM.

Question: For `CCCCCCCCCCn1cc(-c2ccc(-c3cc(-c4cnccn4)nc(-c4cnccn4)c3)cc2)nn1`, which IC50 (K562) is on record?
Answer: Its IC50 is over 25000 nM.

Question: What about the IC50 (PANC-1 [1]) of the same molecule?
Answer: The IC50 was over 25000 nM.

Question: What about the IC50 (MCF7 [2]) of the same molecule?
Answer: The IC50 was over 25000 nM.

Question: What about the IC50 (U-251) of the same molecule?
Answer: The IC50 was over 25000 nM.

Question: What about the IC50 (HCT-116) of the same molecule?
Answer: The IC50 was over 25000 nM.
